In patent publication US7795239B2, “Saccharide compositions and method of use” (Mueller Medical International LLC, priority 1992, dated 2010):

Set-up: AUC for Cimetidine / AUC for Ranitidine: unit not given beside the values
Conditions: in vivo

Row | dissolved drug not absorbed from the GI tract into the blood stream | AUC for Cimetidine | AUC for Ranitidine | SMILES
1 | 15-20% | – | – | NC(N)=Nc1nc(CSCCC(N)=NS(N)(=O)=O)cs1 [famotidine]
2 | 15-20% | 54.3 | – | CN/C(=N/CCSCc1nc[nH]c1C)NC#N [cimetidine]
3 | 15-20% | – | 55.2 | CNC(=C[N+](=O)[O-])NCCSCc1ccc(CN(C)C)o1 [ranitidine]
